Experimental data from ChEMBL document CHEMBL5331068, “Briarane-type diterpenoids, the inhibitors of osteoclast formation by interrupting Keap1-Nrf2 interaction and activating Nrf2 pathway” (Eur J Med Chem, 2023).
Activity calls are given as the source filed them. No cut-off for these calls is given here.

Experiments:
BMDM [1] = assay: Anti-osteoclastogenesis activity in C57BL/6 mouse BMDM cells assessed as inhibition of RANKL-induced osteoclastogenesis at 10 uM incubated for 7 days in the presence of M-CSF by TRAP-staining based microscopic analysis relative to control; assay type: functional; settings: C57BL/6, BMDM, 168 h, time 7 day
[2] = Cytotoxicity against C57BL/6 mouse BMDM cells incubated for 48 hrs by MTT assay; assay type: toxicity, cell-based; settings: BMDM cells (bone marrow-derived macrophages)
[3] = target: T1, Kelch-like ECH-associated protein 1 (Homo sapiens, UniProt Q14145); assay: Binding affinity to recombinant human Keap1 assessed as equilibrium dissociation constant by SPR analysis
BMDM [4] = assay: Anti-osteoclastogenesis activity in C57BL/6 mouse BMDM cells assessed as inhibition of RANKL-induced osteoclastogenesis at 1 uM incubated for 7 days in the presence of M-CSF by TRAP-staining based microscopic analysis relative to control; assay type: functional; settings: C57BL/6, BMDM, 168 h, time 7 day
[5] = target: T1, Kelch-like ECH-associated protein 1; assay: Binding affinity to recombinant human Keap1 by SPR analysis

T1 sequence (Q14145 whole entry): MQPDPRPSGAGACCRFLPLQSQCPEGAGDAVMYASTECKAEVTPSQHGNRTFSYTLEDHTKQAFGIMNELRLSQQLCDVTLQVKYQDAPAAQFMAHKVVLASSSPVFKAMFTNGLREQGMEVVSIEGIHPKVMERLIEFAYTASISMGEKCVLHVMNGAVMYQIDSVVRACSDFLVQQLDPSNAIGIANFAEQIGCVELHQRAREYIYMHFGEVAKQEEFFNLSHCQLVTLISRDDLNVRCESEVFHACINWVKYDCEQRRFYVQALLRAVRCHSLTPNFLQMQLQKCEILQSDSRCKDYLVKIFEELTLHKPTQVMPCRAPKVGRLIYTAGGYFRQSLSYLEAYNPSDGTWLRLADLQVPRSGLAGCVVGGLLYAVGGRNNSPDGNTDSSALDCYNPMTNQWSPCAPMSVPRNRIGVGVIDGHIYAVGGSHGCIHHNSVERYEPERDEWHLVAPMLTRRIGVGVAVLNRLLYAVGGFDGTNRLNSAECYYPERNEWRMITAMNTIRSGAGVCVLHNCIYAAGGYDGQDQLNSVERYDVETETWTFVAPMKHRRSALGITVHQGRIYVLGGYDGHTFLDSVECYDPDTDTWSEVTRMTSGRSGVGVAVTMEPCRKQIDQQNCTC

Q: Which results are given for `CC(=O)O[C@H]1/C=C\C(CO)=C/[C@@H]2OC(=O)[C@H](C)[C@@]2(O)[C@@H](OC(C)=O)[C@H]2[C@@](O)(CO)CC[C@H](OC(C)=O)[C@]12C`?
A: inhibition at 10 µM (BMDM [1]): 32%; CC50 at 48 h [2]: > 50 µM; Kd [3]: 6.6 µM

Q: What does the source list for `CCOCC1=C/[C@@H]2OC(=O)[C@H](C)[C@@]2(O)[C@@H](OC(C)=O)[C@H]2[C@@]3(CO3)[C@H](OC(C)=O)C[C@H](OC(C)=O)[C@]2(C)[C@@H](OC(C)=O)/C=C\1`?
A: inhibition at 10 µM (BMDM [1]): 88.3%; CC50 at 48 h [2]: > 50 µM; Kd [3]: 6.2 µM

Q: With `O=P(O)(O)C(O)(Cn1ccnc1)P(=O)(O)O` [ZOLEDRONIC ACID ANHYDROUS] as the compound, how does the inhibition at 1 µM (BMDM [4]) read?
A: The inhibition at 1 µM was 87.1%.

Q: Which inhibition at 10 µM (BMDM [1]) does the source give for `CC(=O)O[C@H]1[C@@H](O)[C@](O)(CO)[C@@H]2[C@H](OC(C)=O)[C@@]3(O)[C@H](/C=C(CO)\C=C/[C@H](OC(C)=O)[C@@]2(C)[C@H]1OC(=O)CC(C)C)OC(=O)[C@@H]3C` here?
A: The inhibition at 10 µM was 57.6%.

Q: What about the CC50 at 48 h [2] of the same compound?
A: Its CC50 at 48 h is > 50 µM.

Q: And the Activity [5]?
A: The Activity was “inactive”.

Q: For `CC(=O)O[C@H]1[C@@H](OC(=O)CC(C)C)[C@](O)(CO)[C@@H]2[C@H](OC(C)=O)[C@@]3(O)[C@H](/C=C(CO)\C=C/[C@H](OC(=O)COC(=O)CC(C)C)[C@@]2(C)[C@H]1OC(C)=O)OC(=O)[C@@H]3C`, which inhibition at 10 µM (BMDM [1]) is on record?
A: The inhibition at 10 µM was 30.8%.

Q: What about the CC50 at 48 h [2] of the same compound?
A: The CC50 at 48 h was > 50 µM.

Q: And the Activity [5]?
A: Its Activity is “inactive”.

Q: Which inhibition at 10 µM (BMDM [1]) does the source give for `C=C1[C@H](Cl)[C@@H]2OC(=O)[C@H](C)[C@]23O[C@]1(O)C[C@H](OC(C)=O)[C@@]1(C)[C@@H](OC(C)=O)C[C@@H](OC(C)=O)[C@]2(CO2)[C@@H]1[C@@H]3OC(C)=O` here?
A: Its inhibition at 10 µM is 29.3%.

Q: And the CC50 at 48 h [2]?
A: The CC50 at 48 h was > 50 µM.

Q: What about the Activity [5] of the same compound?
A: Its Activity is “Active”.

Q: Which inhibition at 10 µM (BMDM [1]) does the source give for `CCOCC1=C/[C@@H]2OC(=O)[C@H](C)[C@@]2(O)[C@@H](OC(C)=O)[C@H]2[C@@]3(CO3)[C@H](OC(C)=O)C[C@H](OC(=O)CC(C)C)[C@]2(C)[C@@H](OC(C)=O)/C=C\1` here?
A: Its inhibition at 10 µM is 38.4%.

Q: What about the CC50 at 48 h [2] of the same compound?
A: Its CC50 at 48 h is > 50 µM.

Q: What about the Kd [3] of the same compound?
A: The Kd was > 100 µM.

Q: What does the source list for `C=C1/C=C\[C@H](OC(C)=O)[C@@]2(C)[C@@H](OC(C)=O)CC[C@]3(CO3)[C@@H]2[C@H](OC(C)=O)[C@]2(O)[C@@H](C)C(=O)O[C@H]2[C@H]1Cl`?
A: inhibition at 10 µM (BMDM [1]): 97.1%; CC50 at 48 h [2]: > 50 µM; Activity [5]: Active

Q: Which results are given for `CC(=O)O[C@H]1CC[C@](O)(CO)[C@@H]2[C@H](OC(C)=O)[C@@]3(O)[C@H](/C=C(CO)\C=C/[C@H](OC(=O)COC(=O)CC(C)C)[C@@]12C)OC(=O)[C@@H]3C`?
A: inhibition at 10 µM (BMDM [1]): 33.7%; CC50 at 48 h [2]: > 50 µM; Kd [3]: > 100 µM; Activity [5]: inactive
